Columns and labels:
[1] = target: T1, Endothelin receptor type B (Sus scrofa, UniProt P35463); assay: Inhibitory activity measured against Endothelin B receptor binding to porcine cerebellum; format: tissue-based
T1 sequence (P35463 whole entry): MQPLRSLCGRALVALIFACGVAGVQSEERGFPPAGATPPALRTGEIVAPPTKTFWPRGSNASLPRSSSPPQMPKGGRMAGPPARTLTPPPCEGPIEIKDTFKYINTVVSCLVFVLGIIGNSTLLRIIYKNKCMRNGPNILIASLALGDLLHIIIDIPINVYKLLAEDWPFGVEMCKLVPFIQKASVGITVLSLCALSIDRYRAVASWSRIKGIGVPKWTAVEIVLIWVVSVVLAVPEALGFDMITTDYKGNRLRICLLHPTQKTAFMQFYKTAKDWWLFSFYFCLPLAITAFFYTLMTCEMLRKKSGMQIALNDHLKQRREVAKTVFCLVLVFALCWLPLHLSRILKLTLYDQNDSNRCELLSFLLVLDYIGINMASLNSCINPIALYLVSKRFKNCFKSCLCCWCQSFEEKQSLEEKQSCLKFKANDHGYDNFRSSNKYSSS

[2] = target: T2, Endothelin-1 receptor (Rattus norvegicus, UniProt P26684); assay: Inhibitory activity against the Endothelin A receptor of rat MMQ cells; format: cell-based
T2 sequence (P26684 whole entry): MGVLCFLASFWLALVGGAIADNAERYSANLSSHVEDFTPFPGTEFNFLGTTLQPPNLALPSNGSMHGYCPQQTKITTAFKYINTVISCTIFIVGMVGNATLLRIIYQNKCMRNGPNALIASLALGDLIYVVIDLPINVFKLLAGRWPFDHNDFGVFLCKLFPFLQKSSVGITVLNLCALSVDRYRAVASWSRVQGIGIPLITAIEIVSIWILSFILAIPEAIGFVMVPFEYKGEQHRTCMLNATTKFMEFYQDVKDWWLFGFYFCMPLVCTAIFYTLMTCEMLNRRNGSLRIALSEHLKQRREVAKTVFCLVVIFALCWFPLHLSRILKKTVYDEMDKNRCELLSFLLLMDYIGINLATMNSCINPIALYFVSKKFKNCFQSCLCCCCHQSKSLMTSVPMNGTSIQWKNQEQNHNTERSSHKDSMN

[3] = target: T3, Endothelin receptor (Rattus norvegicus, UniProt P26684+P21451); assay: Inhibition of phosphoinositol hydrolysis of MMQ cells.; format: functional, cell-based
T3 sequence (P26684 whole entry): T2 sequence (P26684 whole entry)
T3 sequence (P21451 whole entry): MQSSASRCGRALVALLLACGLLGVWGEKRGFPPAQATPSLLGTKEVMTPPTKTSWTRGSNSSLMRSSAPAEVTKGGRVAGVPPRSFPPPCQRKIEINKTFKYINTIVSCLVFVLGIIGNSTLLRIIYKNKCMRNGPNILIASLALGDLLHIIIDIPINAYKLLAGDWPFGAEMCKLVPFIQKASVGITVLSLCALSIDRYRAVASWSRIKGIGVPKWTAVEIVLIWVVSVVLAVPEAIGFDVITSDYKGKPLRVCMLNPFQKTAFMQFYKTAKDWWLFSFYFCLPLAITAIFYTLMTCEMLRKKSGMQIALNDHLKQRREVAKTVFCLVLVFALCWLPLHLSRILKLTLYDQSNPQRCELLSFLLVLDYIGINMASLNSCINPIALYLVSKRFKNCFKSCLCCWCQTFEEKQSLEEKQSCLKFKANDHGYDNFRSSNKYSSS

Row | Structure (SMILES) | IC50 [1] | IC50 [2] | IC50 [3]
1 | C#CCN(C)C(=O)CN1C[C@@H](c2ccc3c(c2)OCO3)[C@H](C(=O)O)[C@H]1c1ccc(OC)cc1 | 4000 nM | 106 nM | –
2 | CCCCS(=O)(=O)N1C[C@@H](c2ccc3c(c2)OCO3)[C@H](C(=O)O)[C@H]1c1ccc(OC)cc1 | 6180 nM | 1240 nM | –
3 | CCCCN(CCCC)C(=O)C(C)N1CC(c2ccc3c(c2)OCO3)C(C(=O)O)C1c1ccc(OC)cc1 (centres undefined) | 315 nM | 0.46 nM | 1.34 nM
4 | COc1ccc([C@@H]2[C@@H](C(=O)O)[C@H](c3ccc4c(c3)OCO4)CN2CC(=O)N(C)C2CCCCC2)cc1 | 806 nM | 23.8 nM | 2.06 nM
5 | COc1ccc([C@@H]2[C@@H](C(=O)O)[C@H](c3ccc4c(c3)OCO4)CN2CC(=O)N(C)CC(C)(C)C)cc1 | 1800 nM | 112 nM | –
6 | COCCN(CCOC)C(=O)CN1C[C@@H](c2ccc3c(c2)OCO3)[C@H](C(=O)O)[C@H]1c1ccc(OC)cc1 | 1070 nM | 4.45 nM | 4.91 nM
7 | COc1ccc([C@@H]2[C@@H](C(=O)O)[C@H](c3ccc4c(c3)OCO4)CN2CCOCC(C)C)cc1 | 8380 nM | 437 nM | –
8 | CCCCN(CCCC)C(=O)N1C[C@@H](c2ccc3c(c2)OCO3)[C@H](C(=O)O)[C@H]1c1ccc(OC)cc1 | 1470 nM | 396 nM | –
9 | CCCCNC(=O)CN1C[C@@H](c2ccc3c(c2)OCO3)[C@H](C(=O)O)[C@H]1c1ccc(OC)cc1 | 1260 nM | 43 nM | 10 nM
10 | CCCCOCCN1C[C@@H](c2ccc3c(c2)OCO3)[C@H](C(=O)O)[C@H]1c1ccc(OC)cc1 | 3830 nM | 220 nM | –
11 | CCOCCN1C[C@@H](c2ccc3c(c2)OCO3)[C@H](C(=O)O)[C@H]1c1ccc(OC)cc1 | 9010 nM | 520 nM | –
12 | COc1ccc([C@@H]2[C@@H](C(=O)O)[C@H](c3ccc4c(c3)OCO4)CN2C(=O)COc2ccc(F)cc2)cc1 | 12700 nM | – | –
13 | CCCC(CCC)C(=O)CN1C[C@@H](c2ccc3c(c2)OCO3)[C@H](C(=O)O)[C@H]1c1ccc(OC)cc1 | 283 nM | 85 nM | –
14 | COc1ccc([C@@H]2[C@@H](C(=O)O)[C@H](c3ccc4c(c3)OCO4)CN2CC(N)=O)cc1 | 3270 nM | – | –
15 | COc1ccc([C@@H]2[C@@H](C(=O)O)[C@H](c3ccc4c(c3)OCO4)CN2C(=O)c2ccco2)cc1 | 40300 nM | 5220 nM | –
16 | CCCCN(C(=O)CN1C[C@@H](c2ccc3c(c2)OCO3)[C@H](C(=O)O)[C@H]1c1ccc(OC)cc1)c1ccccc1 | 306 nM | 0.81 nM | –
17 | CCCCNC(=O)N1C[C@@H](c2ccc3c(c2)OCO3)[C@H](C(=O)O)[C@H]1c1ccc(OC)cc1 | 11100 nM | 684 nM | –
18 | CCCCN(CCCC)CC(=O)N1C[C@@H](c2ccc3c(c2)OCO3)[C@H](C(=O)O)[C@H]1c1ccc(OC)cc1 | 29400 nM | 6810 nM | –
19 | CCCC#CCN1C[C@@H](c2ccc3c(c2)OCO3)[C@H](C(=O)O)[C@H]1c1ccc(OC)cc1 | 3590 nM | 765 nM | –
20 | CC[S+]([O-])CCN1C[C@@H](c2ccc3c(c2)OCO3)[C@H](C(=O)O)[C@H]1c1ccc(OC)cc1 (some centres undefined) | 834 nM | 44 nM | –
21 | COc1ccc([C@@H]2[C@@H](C(=O)O)[C@H](c3ccc4c(c3)OCO4)CN2C(=O)Nc2ccccc2)cc1 | 3510 nM | 2430 nM | –
22 | CCCCN(CC)C(=O)CN1C[C@@H](c2ccc3c(c2)OCO3)[C@H](C(=O)O)[C@H]1c1ccc(OC)cc1 | 531 nM | 0.85 nM | 0.33 nM
23 | COc1ccc([C@@H]2[C@@H](C(=O)O)[C@H](c3ccc4c(c3)OCO4)CN2CC(=O)N(C)Cc2ccccc2)cc1 | 1680 nM | 769 nM | –
24 | COc1ccc([C@@H]2[C@@H](C(=O)O)[C@H](c3ccc4c(c3)OCO4)CN2CC(=O)N(C)c2ccccc2)cc1 | 1180 nM | 50.2 nM | –
25 | CCCOCCN1C[C@@H](c2ccc3c(c2)OCO3)[C@H](C(=O)O)[C@H]1c1ccc(OC)cc1 | 4970 nM | 108 nM | –

Row | Structure (SMILES) | IC50 [1] | IC50 [2] | IC50 [3]
26 | CCCS(=O)(=O)CCN1C[C@@H](c2ccc3c(c2)OCO3)[C@H](C(=O)O)[C@H]1c1ccc(OC)cc1 | 750 nM | 37 nM | –
27 | COc1ccc([C@@H]2[C@@H](C(=O)O)[C@H](c3ccc4c(c3)OCO4)CN2CC(=O)N(CC(C)C)CC(C)C)cc1 | 1820 nM | 16.2 nM | 0.6 nM
28 | COCCOCCN1C[C@@H](c2ccc3c(c2)OCO3)[C@H](C(=O)O)[C@H]1c1ccc(OC)cc1 | 3390 nM | 682 nM | –
29 | CCCCCN(C)C(=O)CN1C[C@@H](c2ccc3c(c2)OCO3)[C@H](C(=O)O)[C@H]1c1ccc(OC)cc1 | 624 nM | 5.78 nM | 5.64 nM
30 | COc1ccc([C@@H]2[C@@H](C(=O)O)[C@H](c3ccc4c(c3)OCO4)CN2CCOc2ccccc2)cc1 | 3400 nM | 885 nM | –
31 | CCCCCCN(C)C(=O)CN1C[C@@H](c2ccc3c(c2)OCO3)[C@H](C(=O)O)[C@H]1c1ccc(OC)cc1 | 404 nM | 7.61 nM | 1 nM
32 | COc1ccc([C@@H]2[C@@H](C(=O)O)[C@H](c3ccc4c(c3)OCO4)CN2CC(=O)NCC(C)C)cc1 | 184 nM | 8.2 nM | 9.22 nM
33 | COc1ccc([C@@H]2[C@@H](C(=O)O)[C@H](c3ccc4c(c3)OCO4)CN2CC(=O)N(CCC(C)C)CCC(C)C)cc1 | 41 nM | 0.43 nM | –
34 | COc1ccc([C@@H]2[C@@H](C(=O)O)[C@H](c3ccc4c(c3)OCO4)CN2CC(=O)NC2CCCC2)cc1 | 307 nM | 16.2 nM | 23.8 nM
35 | COCCNC(=O)CN1C[C@@H](c2ccc3c(c2)OCO3)[C@H](C(=O)O)[C@H]1c1ccc(OC)cc1 | 3730 nM | 178 nM | –
36 | CCCCC(=O)CN1C[C@@H](c2ccc3c(c2)OCO3)[C@H](C(=O)O)[C@H]1c1ccc(OC)cc1 | 2430 nM | 163 nM | –
37 | COc1ccc([C@@H]2[C@@H](C(=O)O)[C@H](c3ccc4c(c3)OCO4)CN2CC(=O)N2CCCCC2)cc1 | 3040 nM | 350 nM | –
38 | COc1ccc([C@@H]2[C@@H](C(=O)O)[C@H](c3ccc4c(c3)OCO4)CN2CC(=O)N(C)CC(C)C)cc1 | 1050 nM | 1.88 nM | 0.28 nM
39 | CCCN(CCC)C(=O)CCN1C[C@@H](c2ccc3c(c2)OCO3)[C@H](C(=O)O)[C@H]1c1ccc(OC)cc1 | 4200 nM | 121 nM | –
40 | COc1ccc([C@@H]2[C@@H](C(=O)O)[C@H](c3ccc4c(c3)OCO4)CN2Cc2ccc(F)cc2)cc1 | 7930 nM | 4320 nM | –
41 | CCN(CC)C(=O)CN1C[C@@H](c2ccc3c(c2)OCO3)[C@H](C(=O)O)[C@H]1c1ccc(OC)cc1 | 5250 nM | 32.9 nM | 2.26 nM
42 | CCCCN(CCCC)CCN1C[C@@H](c2ccc3c(c2)OCO3)[C@H](C(=O)O)[C@H]1c1ccc(OC)cc1 | 1590 nM | 794 nM | –
43 | COc1ccc(NC(=O)N2C[C@@H](c3ccc4c(c3)OCO4)[C@H](C(=O)O)[C@H]2c2ccc(OC)cc2)cc1 | 3790 nM | 781 nM | –
44 | C=CCNC(=O)CN1C[C@@H](c2ccc3c(c2)OCO3)[C@H](C(=O)O)[C@H]1c1ccc(OC)cc1 | 889 nM | 34.2 nM | 16.5 nM
45 | COc1ccc([C@@H]2[C@@H](C(=O)O)[C@H](c3ccc4c(c3)OCO4)CN2CCc2ccccn2)cc1 | 2360 nM | 900 nM | –
46 | COc1ccc([C@@H]2[C@@H](C(=O)O)[C@H](c3ccc4c(c3)OCO4)CN2C/C=C/CC(C)C)cc1 | 27300 nM | 1630 nM | –
47 | CCCCCCN1C[C@@H](c2ccc3c(c2)OCO3)[C@H](C(=O)O)[C@H]1c1ccc(OC)cc1 | 23300 nM | 2870 nM | –
48 | COc1ccc([C@@H]2[C@@H](C(=O)O)[C@H](c3ccc4c(c3)OCO4)CN2C(=O)N2CCOCC2)cc1 | 5020 nM | 1080 nM | –
49 | CCCCCN(CCCCC)C(=O)CN1C[C@@H](c2ccc3c(c2)OCO3)[C@H](C(=O)O)[C@H]1c1ccc(OC)cc1 | 313 nM | 0.56 nM | –

From ChEMBL document CHEMBL1129506, “2,4-Diarylpyrrolidine-3-carboxylic acids--potent ETA selective endothelin receptor antagonists. 1. Discovery of A-127722” (J Med Chem, 1996)
